# Measured values published in patent publication US20120178915A1, “PYRIMIDINE DERIVATIVES AND ANALOGS, PREPARATION METHOD AND USE THEREOF” (priority 2009, published 2012).
# Read-outs that look alike come from different tables or passages of the source.
# Tests used:
# Oral candidiasis = test: MIC broth microdilution; type: cell-based; conditions: Microorganism 32, Oral candidiasis; 37° C., 24 h; read-out: Minimum Inhibitory Concentration, MIC
# Bacillus anthracis 1 = test: microbe, parasite or virus in culture; type: cell-based; conditions: Bacillus anthracis, 1, 24 h, read-out: Minimum Inhibitory Concentration, MIC
# [1] = test system: Enterococcus faecalis 1513 (VRE); test: microbe, parasite or virus in culture; type: cell-based; conditions: 24 h, read-out: Minimum Inhibitory Concentration, MIC
# [2] = test system: Enterococcus fecal F631 (VRE); test: organism not typed; type: cell-based; conditions: 24 h, read-out: Minimum Inhibitory Concentration, MIC
# [3] = test system: Enterococcus faecalis 29212; test: microbe, parasite or virus in culture; type: cell-based; conditions: 37° C., 24 h, read-out: Minimum Inhibitory Concentration, MIC
# [4] = test system: Streptococcus pneumoniae 10351; test: microbe, parasite or virus in culture; type: cell-based; conditions: 37° C., 24 h, read-out: Minimum Inhibitory Concentration, MIC
# [5] = test system: Enterococcus faecalis F2518 (VRE); test: microbe, parasite or virus in culture; type: cell-based; conditions: 24 h, read-out: Minimum Inhibitory Concentration, MIC
# [6] = test system: Streptococcus agalactiae B; test: microbe, parasite or virus in culture; type: cell-based; conditions: 37° C., 24 h, read-out: Minimum Inhibitory Concentration, MIC
# Gram-positive Bacteria = type: cell-based; conditions: Enterococcus faecalis (VRE), Staphylococcus aureus (MRSA), Streptococcus pneumoniae 6303 (PRSP); Bacillus cereus, Bacillus subtilis, Enterococcus faecalis, Staphylococcus aureus, Streptococcus pneumoniae, Streptococcus agalactiae B and streptococci 4
# MIC broth microdilution = type: cell-based; conditions: Microorganism 33, Dermatophytosis; 37° C., 24 h; read-out: Minimum Inhibitory Concentration, MIC
# [7] = test system: Corynebacterium diphtheriae; test: microbe, parasite or virus in culture; type: cell-based; conditions: 37° C., 24 h, read-out: Minimum Inhibitory Concentration, MIC
# Bacillus subtilis 82 = test: microbe, parasite or virus in culture; type: cell-based; conditions: 37° C., 24 h, read-out: Minimum Inhibitory Concentration, MIC
# [8] = test system: Staphylococcus aureus 704 (MRSA); test: microbe, parasite or virus in culture; type: cell-based; conditions: 24 h, read-out: Minimum Inhibitory Concentration, MIC
# Clostridium tetani = test: microbe, parasite or virus in culture; type: cell-based; conditions: 24 h
# Bacillus subtilis 168 = test: microbe, parasite or virus in culture; type: cell-based; conditions: 37° C., 24 h, read-out: Minimum Inhibitory Concentration, MIC
# [9] = test system: Staphylococcus aureus 705 (MRSA); test: microbe, parasite or virus in culture; type: cell-based; conditions: 24 h, read-out: Minimum Inhibitory Concentration, MIC
# [10] = test system: Streptococcus pneumoniae 6301; test: microbe, parasite or virus in culture; type: cell-based; conditions: 37° C., 24 h, read-out: Minimum Inhibitory Concentration, MIC
# [11] = test system: Streptococcus pneumoniae 62; test: microbe, parasite or virus in culture; type: cell-based; conditions: 37° C., 24 h, read-out: Minimum Inhibitory Concentration, MIC
# [12] = test system: Staphylococcus aureus 43300 (MRSA); test: microbe, parasite or virus in culture; type: cell-based; conditions: 24 h, read-out: Minimum Inhibitory Concentration, MIC
# [13] = test system: Streptococcus pneumoniae M2; test: microbe, parasite or virus in culture; type: cell-based; conditions: 37° C., 24 h, read-out: Minimum Inhibitory Concentration, MIC
# [14] = test system: Enterococcus faecalis 51299; test: microbe, parasite or virus in culture; type: cell-based; conditions: Enterococcus faecalis, 51299, 24 h, read-out: Minimum Inhibitory Concentration, MIC
# [15] = test system: Staphylococcus aureus 29231; test: microbe, parasite or virus in culture; type: cell-based; conditions: 37° C., 24 h, read-out: Minimum Inhibitory Concentration, MIC
# [16] = test system: Enterococcus faecalis 19433; test: microbe, parasite or virus in culture; type: cell-based; conditions: 37° C., 24 h, read-out: Minimum Inhibitory Concentration, MIC
# Bacillus cereus 246 = test: microbe, parasite or virus in culture; type: cell-based; conditions: 37° C., 24 h, read-out: Minimum Inhibitory Concentration, MIC
# MRSA 2152 = test: Antibacterial studies in vivo, survival of mice infected with MRSA 2152; conditions: dose mg/kg: ciprofloxacin 20, 3: 30, 7: 40, 21: 50, 33: 25, 70: 70; for Survival rate (%) (life prolongation rate): (survival days of test group − blank group)/blank group ×100%, MRSA 2152 mice, tail vein; for Survival: mice inoculated intraperitoneally with MRSA 2152, test compound by tail vein, repeated after six hours, saline 1.3 days
# [17] = test system: Streptococcus bovis 10035; test: microbe, parasite or virus in culture; type: cell-based; conditions: Streptococcus equinus, 37° C., 24 h, read-out: Minimum Inhibitory Concentration, MIC
# Streptococcus 10342 = test: MIC broth microdilution; type: cell-based; conditions: 37° C., 24 h, read-out: Minimum Inhibitory Concentration, MIC
# [18] = test system: Enterococcus faecalis 583 (VRE); test: microbe, parasite or virus in culture; type: cell-based; conditions: 24 h, read-out: Minimum Inhibitory Concentration, MIC
# Pyogenic Streptococcus = test: microbe, parasite or virus in culture; type: cell-based; conditions: 37° C., 24 h, read-out: Minimum Inhibitory Concentration, MIC
# Clostridium perfringens = test: microbe, parasite or virus in culture; type: cell-based; conditions: 24 h, read-out: Minimum Inhibitory Concentration, MIC
# [19] = test system: Staphylococcus aureus 703 (MRSA); test: microbe, parasite or virus in culture; type: cell-based; conditions: 24 h, read-out: Minimum Inhibitory Concentration, MIC
# Bacillus cereus 2 = test: microbe, parasite or virus in culture; type: cell-based; conditions: 37° C., 24 h, read-out: Minimum Inhibitory Concentration, MIC
# green Streptococcus 1009 = test: microbe, parasite or virus in culture; type: cell-based; conditions: 37° C., 24 h, read-out: Minimum Inhibitory Concentration, MIC
# [20] = test system: Streptococcus pneumoniae 6303 (PRSP); test: microbe, parasite or virus in culture; type: cell-based; conditions: 24 h, read-out: Minimum Inhibitory Concentration, MIC
# [21] = read-out: Minimum Inhibitory Concentration, MIC, Microorganism 29, Clostridium tetani, 37° C.
# [22] = read-out: Minimum Inhibitory Concentration, MIC, Microorganism 30, Clostridium tetani (second line of that name), 37° C.
Compound,MIC (Oral candidiasis) [µM],MIC (Bacillus anthracis 1) [µM],MIC [1] [µM],MIC [2] [µM],MIC [3] [µM],MIC [4] [µM],MIC [5] [µM],MIC [6] [µM],inhibition of growth (conclusion from MICs) (Gram-positive Bacteria),MIC (MIC broth microdilution) [µM],MIC [7] [µM],MIC (Bacillus subtilis 82) [µM],MIC [8] [µM],MIC (Clostridium tetani; [21]) [µM],MIC (Clostridium tetani; [22]) [µM],MIC (Bacillus subtilis 168) [µM],MIC [9] [µM],MIC [10] [µM],MIC [11] [µM],MIC [12] [µM],further results
Cc1nn2c(=O)cc(-c3ccc(C#N)cc3)[nH]c2c1-c1ccc(C(F)(F)F)cc1 [Compound 3],53.1,25.6,1.3,0.33,0.23,1.25,0.48,0.16,significantly inhibited the growth,59.1,62.1,5,0.63,50.3,23.2,2.5,0.46,0.3,10.5,0.36,MIC [13]: 0.04 µM; MIC [14]: 0.55 µM; MIC [15]: 0.22 µM; MIC [16]: 0.42 µM; MIC (Bacillus cereus 246): 0.53 µM; Survival rate (%) (life prolongation rate) (MRSA 2152): 216.8%; Survival (MRSA 2152): 4.3 days; MIC [17]: 2.01 µM; MIC (Streptococcus 10342): 1.33 µM; MIC [18]: 0.63 µM; MIC (Pyogenic Streptococcus): 0.12 µM; MIC (Clostridium perfringens): 55.3 µM; MIC [19]: 1.25 µM; MIC (Bacillus cereus 2): 2.5 µM; MIC (green Streptococcus 1009): 0.31 µM; MIC [20]: 0.32 µM
Cc1nn2c(=O)cc(-c3ccc(C(F)(F)F)cc3)[nH]c2c1-c1ccc(Cl)cc1Cl [Compound 7],35.6,80.3,0.65,0.63,0.31,1.25,0.23,0.22,significantly inhibited the growth,36.5,71.2,0.02,0.32,50.3,22.1,0.22,0.55,5,0.19,2.5,MIC [13]: 2.5 µM; MIC [14]: 2.5 µM; MIC [15]: 5 µM; MIC [16]: 0.61 µM; MIC (Bacillus cereus 246): 1.25 µM; Survival rate (%) (life prolongation rate) (MRSA 2152): 330.7%; Survival (MRSA 2152): 5.6 days; MIC [17]: 2.25 µM; MIC (Streptococcus 10342): 0.25 µM; MIC [18]: 0.3 µM; MIC (Pyogenic Streptococcus): 2.5 µM; MIC (Clostridium perfringens): 50.2 µM; MIC [19]: 2.5 µM; MIC (Bacillus cereus 2): 0.63 µM; MIC (green Streptococcus 1009): 1.35 µM; MIC [20]: 0.21 µM
